Test results reported in patent publication US20210137861A1, “METHODS FOR REDUCING ACCUMULATED PATHOLOGIC TAU PROTEIN” (HOUGH EAR INSTITUTE, priority 2018, published 2021).

Test system: phospho-Tau (S202,T205) in SH-SY5Y neuroblastoma cells
Assay: Okadaic acid-induced p-Tau accumulation in SH-SY5Y cells, co-incubation (AT8 immunoblot)
Format: cell-based
Conditions: 100 nM OA alone, 3 h
Method: Reproducible hyperphosphorylated p-Tau accumulation can be induced in the SH-SY5Y neuroblastoma cell line following incubation with Okadaic Acid (OA), a small molecule inhibitor of protein phosphatase 2A (PP2A), according to the method described by Boban et al., J Neurosci Methods., S0165-0270(18)30297-8 (2018). In this experiment, SH-SY5Y cells were incubated with 100 nM OA alone or in combination with 2,4-DSPBN+NAC for three hours prior to harvesting the cells for immunoblot evaluations with the AT8 phospho-Tau (S202,T205) antibody or the housekeeping protein, GAPDH. […] Two doses of combinatorial 2,4-DSPBN+NAC (185 μM 2,4-DSPBN/500 μM NAC or 93 μM 2,4-DSPBN/250 μM NAC) were used in this experiment, each of which used a molar ratio that mimics the equal mass:mass ratios used in the in vivo studies (i.e. a 1:1 mass ratio of 2,4-DSPBN and NAC is equivalent to a 1:2.7 molar ratio).
Biological and technical replicates of the experiment described in FIG. 3 were conducted, and p-Tau(S202,T205) immunoblots (AT8 antibody) were subjected to densitometric evaluations of relative protein levels, using National Institutes of Health ImageJ software and the internal GAPDH protein standard. […]

Q: Which “phospho-Tau(S202,T205) level relative to untreated control cells (immunoblot, FIG. 3)” value does the source give for `C=C1[C@@H](O)[C@@H]2O[C@]3(CC[C@H](/C=C/[C@@H](C)[C@@H]4CC(C)=C[C@@]5(O[C@H](C[C@@](C)(O)C(=O)O)CC[C@H]5O)O4)O3)CC[C@H]2O[C@@H]1[C@@H](O)C[C@H](C)[C@H]1O[C@@]2(CCCCO2)CC[C@H]1C` [OA, Okadaic Acid] here?
A: The value was “marked phospho-Tau(S202,T205) accumulation”.
